Measured values: patent US20230357242A1, “COMPOUND AS AKT KINASE INHIBITOR” (CHIA TAI TIANQING PHARMACEUTICAL GROUP CO., LTD., priority 2020, published 2023)
Where two headings read alike, the source gives them in different places.

What was measured:
LNcap cells = assay: Inhibitory effect on proliferation of LNcap cells (CCK-8, 72 h); format: cell-based; conditions: Homo sapiens, LNcap cells, CCK-8, read-out: LNcap cells IC50
Method: A dish of LNcap cells (human prostate cancer cells with PTEN deficiency) growing at log phase and in good conditions were taken and digested for 3 min by using 1 mL of pancreatin, then the mixture was added with 4 mL of complete culture medium to terminate digestion, and the cells were added to a centrifuge tube. 20 μL of cells were taken and counted, the required number of cells (mL) was pipetted and centrifuged at 1200 rpm for 5 min, the supernatant was discarded, and an appropriate amount of plating medium (RPMI medium+5% FBS+1% sodium pyruvate+1% glutamine) was added to adjust the cell density to 3×10^4 cells/mL. The cells were seeded on a 96-well plate at 100 μL/well using a multi-channel pipette and cultured in a cell incubator at 37° C., 5% CO2 and saturated humidity. After incubation overnight, compounds were loaded using a nanoliter pipettor, 2 duplicate wells were set for each concentration, and cells without compound were used as negative controls. After 72 h, CCK-8 was added at 10 μL/well for incubation for 4 h, then absorbance was measured at 450 nm with an Envision plate reader, and inhibition rate was calculated. Inhibition rate (%)=(mean value of negative control group−mean value of experimental group)/(mean value of negative control group−mean value of blank group)×100%. A dose-response curve was fitted by four-parameter analysis, with the logarithm of compound concentration as abscissa and inhibition rate as ordinate, so that IC50 was calculated.

[1] = Pharmacokinetic evaluation in mice; format: in vivo; design: Cl: unit not given here; conditions: ICR mice; for AUC(0-inf) / AUC(0-t) / Cmax / Tmax / bioavailability / MRT last / Vd: mouse, plasma; for bioavailability: IG 10 mg/kg vs IV 1 mg/kg, read-out: Absolute bioavailability F %; for MRT last: read-out: MRT(0-t)
Method: ICR mice, weight 18-22 g, after adaption for 3-5 days, were randomly divided into 4 groups of 9 mice, each group was intragastrically (IG) administered with compound 28 or compound 30 at a dose of 10 mg/kg, or intravenously (IV) administered with compound 28 or compound 30 at a dose of 1 mg/kg.
The animals to be tested (ICR mice) were fasted for 12 h before administration and food was provided 4 h after administration, and water was freely drunk before and after the experiment and during the experiment.
After intragastric administration, about 0.1 mL of blood was taken from eye sockets at 15 min, 30 min, 1 h, 2 h, 3 h, 4 h, 6 h, 8 h, 10 h, and 24 h; after intravenous injection, about 0.1 mL of blood was taken from eye sockets at 5 min, 10 min, 30 min, 1 h, 2 h, 4 h, 6 h, 8 h, 10 h, and 24 h; each mouse was collected at 3-4 time points and 3 mice were collected at each time point, whole blood was collected, placed in centrifuge tubes containing EDTA-K2, and stored at 4° C. within 1 h, and the plasma was separated off by centrifugation at 4° C. and 4000 rpm for 10 min. All the plasma samples were collected and immediately stored at −20° C. for testing. 30 μL of the plasma sample to be tested and a standard curve sample were pipetted and added with 300 μL of acetonitrile solution containing an internal standard (20 ng/mL diazepam), shaken and mixed well for 5 min, and centrifuged at 13,000 rpm for 10 min. 80 μL of supernatant was taken and diluted with 80 μL of ultrapure water. After being mixed well, 2 μL of the resulting sample was taken for liquid chromatography-mass determination, and a chromatogram was recorded.
Oral and intravenous exposure of the compound of the present application was evaluated by in vivo pharmacokinetic experiment in mice.

AKT1 (S473) = target: T1, AKT1 (S473) (Homo sapiens, UniProt P31749); assay: Inhibitory effect on phosphorylation of LNcap cells AKT1 (S473); format: cell-based; conditions: 1 h incubation
T1 construct: endogenous in cells; host or cells: LNcap cells
Method: LNcap cells AKT1 (S473) growing at log phase were taken, digested with 1 mL of pancreatin for 3 min, and added with 4 mL of complete medium to terminate digestion. The cells were added to a centrifuge tube. 20 μL of cells were taken and counted, the required number of cells (mL) was taken and centrifuged at 1200 rpm for 5 min, and a plating medium (2% FBS+phenol-free red 1640 base medium+1% sodium pyruvate+1% glutamine) was added to adjust the cell density to about 1×10E6 cells/mL. The cells were plated (96 wells) at the above cell density (100 μL/well), and cultured in a cell incubator at 37° C., 5% CO2 overnight; the next day, according to the plate distribution, the corresponding compound was sprayed using a nanoliter pipettor and incubated for 1 h at 37° C. in a cell incubator containing 5% CO2; the supernatant was discarded, and the plate was added with 40 μL of lysis buffer (1×) containing blocking buffer and incubated by shaking at room temperature for 30 min. After the mixture was mixed, 16 μL of lysate was transferred to another 384-well small-volume white plate. The plate was added with 4 μL of pre-mixed antibody (v/v) in assay buffer, covered, centrifuged to mix well, and incubated overnight at room temperature. The 665 nm/620 nm signal value was detected using a PE Envision multi-functional microplate reader, and IC50 was calculated by four-parameter fitting.

T1 sequence (P31749 whole entry): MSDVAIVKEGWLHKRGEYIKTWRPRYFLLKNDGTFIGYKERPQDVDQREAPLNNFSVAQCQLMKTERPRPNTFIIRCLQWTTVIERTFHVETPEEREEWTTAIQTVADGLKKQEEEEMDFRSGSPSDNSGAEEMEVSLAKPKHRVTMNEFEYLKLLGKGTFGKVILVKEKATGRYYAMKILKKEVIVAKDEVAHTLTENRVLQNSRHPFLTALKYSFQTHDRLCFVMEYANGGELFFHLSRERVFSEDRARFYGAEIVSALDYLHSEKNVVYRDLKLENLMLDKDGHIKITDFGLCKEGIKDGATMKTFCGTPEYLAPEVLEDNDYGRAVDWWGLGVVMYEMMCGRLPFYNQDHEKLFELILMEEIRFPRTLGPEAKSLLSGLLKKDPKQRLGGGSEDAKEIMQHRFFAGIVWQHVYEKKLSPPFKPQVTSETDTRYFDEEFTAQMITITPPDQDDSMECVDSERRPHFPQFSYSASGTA

**Q.** Which IC50 (LNcap cells) does the source give for `CC(=O)N1CC2(C1)CN(c1cccc(-c3ccc4nc(-c5cccnc5N)n(-c5ccc(C6(N)CCC6)cc5)c4n3)c1F)C2` [Compound 28] here?
**A.** The IC50 was 3 nM.

**Q.** And the t1/2z ([1]; IG 10 mg/kg)?
**A.** The t1/2z was 5.31 h.

**Q.** And the Cl ([1]; IV 1 mg/kg)?
**A.** Its Cl is 3.95.

**Q.** What about the t1/2z ([1]; IV 1 mg/kg) of the same molecule?
**A.** Its t1/2z is 1.74 h.

**Q.** And the AUC(0-inf) ([1]; po, IG 10 mg/kg)?
**A.** The AUC(0-inf) was 896 ng·h/mL.

**Q.** What about the AUC(0-t) ([1]; po, IG 10 mg/kg) of the same molecule?
**A.** The AUC(0-t) was 871 ng·h/mL.

**Q.** What about the Cmax ([1]; po, IG 10 mg/kg) of the same molecule?
**A.** Its Cmax is 140 ng/mL.

**Q.** What about the Tmax ([1]; po, IG 10 mg/kg) of the same molecule?
**A.** The Tmax was 2 h.

**Q.** And the bioavailability ([1]; po)?
**A.** The bioavailability was 35.4%.

**Q.** And the MRT last ([1]; po, IG 10 mg/kg)?
**A.** Its MRT last is 5.28 h.

**Q.** And the AUC(0-inf) ([1]; IV 1 mg/kg)?
**A.** Its AUC(0-inf) is 253 ng·h/mL.

**Q.** What about the AUC(0-t) ([1]; IV 1 mg/kg) of the same molecule?
**A.** Its AUC(0-t) is 246 ng·h/mL.

**Q.** And the Vd ([1]; IV 1 mg/kg)?
**A.** Its Vd is 9.92 L/kg.

**Q.** And the MRT last ([1]; IV 1 mg/kg)?
**A.** The MRT last was 1.49 h.

**Q.** What about the IC50 (AKT1 (S473)) of the same molecule?
**A.** Its IC50 is 28 nM.

**Q.** Which IC50 (LNcap cells) does the source give for `Nc1ncccc1-c1nc2ccc(-c3cccc(N4CCC(N5CCCC5=O)CC4)c3F)nc2n1-c1ccc(C2(N)CCC2)cc1` [Compound 30] here?
**A.** Its IC50 is 4.8 nM.

**Q.** And the t1/2z ([1]; IG 10 mg/kg)?
**A.** The t1/2z was 6.58 h.

**Q.** What about the Cl ([1]; IV 1 mg/kg) of the same molecule?
**A.** Its Cl is 2.08.

**Q.** What about the t1/2z ([1]; IV 1 mg/kg) of the same molecule?
**A.** Its t1/2z is 1.48 h.

**Q.** What about the AUC(0-inf) ([1]; po, IG 10 mg/kg) of the same molecule?
**A.** The AUC(0-inf) was 2880 ng·h/mL.

**Q.** What about the AUC(0-t) ([1]; po, IG 10 mg/kg) of the same molecule?
**A.** The AUC(0-t) was 2770 ng·h/mL.

**Q.** What about the Cmax ([1]; po, IG 10 mg/kg) of the same molecule?
**A.** Its Cmax is 542 ng/mL.

**Q.** What about the Tmax ([1]; po, IG 10 mg/kg) of the same molecule?
**A.** The Tmax was 2 h.

**Q.** What about the bioavailability ([1]; po) of the same molecule?
**A.** Its bioavailability is 58.2%.

**Q.** What about the MRT last ([1]; po, IG 10 mg/kg) of the same molecule?
**A.** Its MRT last is 5.01 h.

**Q.** And the AUC(0-inf) ([1]; IV 1 mg/kg)?
**A.** The AUC(0-inf) was 482 ng·h/mL.

**Q.** And the AUC(0-t) ([1]; IV 1 mg/kg)?
**A.** Its AUC(0-t) is 476 ng·h/mL.

**Q.** What about the Vd ([1]; IV 1 mg/kg) of the same molecule?
**A.** The Vd was 4.43 L/kg.

**Q.** What about the MRT last ([1]; IV 1 mg/kg) of the same molecule?
**A.** Its MRT last is 1.04 h.

**Q.** And the IC50 (AKT1 (S473))?
**A.** Its IC50 is 22 nM.
